Test results reported in patent publication US5036055A, “Acylated derivatives of etoposide” (Bristol-Myers Company, priority 1989, dated 1991).
In brackets after ≈: the same amount, converted by molar mass. Read-outs that look alike come from different tables or passages of the source.

Columns and labels:
[1] = tested on: P388 leukemia; assay: in vivo antitumor activity against murine transplantable P388 leukemia; parameters: species or system murine (female CDF1 mice)
Description: Representative compounds of the present invention were evaluated for antitumor activity against murine transplantable P388 leukemia. Female CDF1 mice were inoculated intraperitoneally with 0.4 ml of diluted ascitic fluid containing 10^6 lymphocytic leukemia P388 cells. […] The percent increase of median survival time (MST) of treated animals over that of untreated control animals was determined and reported as % T/C. Compounds showing % T/C values of 125 or greater are considered to have significant antitumor activity. Table I presents the results of the in vivo evaluation; only the maximum % T/C and the dose giving the maximum effects are reported.

[2] = tested on: B16-F10 murine melanoma; assay: in vitro cytotoxicity against B16-F10 murine melanoma (neutral red, 540 nm); format: cell-based; conditions: Mus musculus, 72 hours incubation
Description: (§1) In vitro cytotoxicity of compounds of the present invention was evaluated against B16-F10 murine melanoma and Moser human colon carcinoma cell lines. Exponentially growing B16-F10 and Moser cells were harvested, counted and suspended in the culture medium at the concentrations of 1.5×10^4 and 3×10^4 cells/ml, respectively. Twenty-four hours after planting cell suspension (180 mcl) into wells of a 96-well microtiter plate, test materials (20 mcl) were added to the wells and the plates were incubated for 72 hours. The cytotoxic activities against the tumor cells were colorimetrically determined at 540 nm after staining viable cells with neutral red solution.

[3] = tested on: Moser human colon carcinoma; assay: in vitro cytotoxicity against Moser human colon carcinoma (neutral red, 540 nm); format: cell-based; conditions: 72 hours incubation
Description: as §1

[4] = 120 mg/kg/day, i.p. single dose on day 1, CDF1 mice
[5] = Mus musculus, P388, ip, 1200 h, read-out: % T/C MST
[6] = Mus musculus, P388, ip, 1200 h, 30 mg/kg/day, i.p. single dose on day 1, maximum % T/C at dose giving maximum effect, CDF1 mice, 50 days, read-out: % T/C MST
[7] = Mus musculus, P388, ip, 1200 h, 120 mg/kg/day, i.p. single dose on day 1, maximum % T/C at dose giving maximum effect, CDF1 mice, 50 days, read-out: % T/C MST

Compound	IC50 [2]	IC50 [3]	response vs control in vivo at 30 mg/kg [1, 6]	response vs control in vivo at 120 mg/kg [1, 7]	also measured
COc1cc([C@@H]2c3cc4c(cc3[C@@H](O[C@@H]3O[C@@H]5CO[C@@H](C)O[C@H]5[C@H](O)[C@H]3O)[C@H]3COC(=O)[C@H]23)OCO4)cc(OC)c1O [Etoposide, etoposide]	0.45 µg/mL (≈ 0.765 µM)	–	–	–	Number of survivors/tested on day 50 [1, 4]: 6/12; response vs control in vivo at 30 mg/kg [1, 5]: 182%; response vs control in vivo at 120 mg/kg [1, 5]: > 390%
COc1cc([C@@H]2c3cc4c(cc3[C@@H](O[C@@H]3O[C@@H]5CO[C@@H](C)O[C@H]5[C@H](OC(C)=O)[C@H]3OC(C)=O)[C@H]3COC(=O)[C@H]23)OCO4)cc(OC)c1O [Example 1, 2",3"-di-0-acetyl etoposide]	1.3 µg/mL (≈ 1.93 µM)	< 0.8 µg/mL	165%	–	–
COc1cc([C@@H]2c3cc4c(cc3[C@@H](O[C@@H]3O[C@@H]5CO[C@@H](C)O[C@H]5[C@H](O)[C@H]3OC(C)=O)[C@H]3COC(=O)[C@H]23)OCO4)cc(OC)c1O [Example 3, 2"-0-acetyl etoposide]	1.6 µg/mL (≈ 2.54 µM)	1.1 µg/mL (≈ 1.74 µM)	240%	–	–
COc1cc([C@@H]2c3cc4c(cc3[C@@H](O[C@@H]3O[C@@H]5CO[C@@H](C)O[C@H]5[C@H](OC(C)=O)[C@H]3O)[C@H]3COC(=O)[C@H]23)OCO4)cc(OC)c1O [Example 4, 3"-0-acetyl-etoposide]	1.4 µg/mL (≈ 2.22 µM)	–	210%	–	–
COc1cc([C@@H]2c3cc4c(cc3[C@@H](O[C@@H]3O[C@@H]5CO[C@@H](C)O[C@H]5[C@H](OC=O)[C@H]3OC=O)[C@H]3COC(=O)[C@H]23)OCO4)cc(OC)c1O [Example 6, 2",3"-di-0-formyl etoposide]	2 µg/mL (≈ 3.1 µM)	0.84 µg/mL (≈ 1.3 µM)	–	> 500%	Number of survivors/tested on day 50 [1, 4]: 3/4
COc1cc([C@@H]2c3cc4c(cc3[C@@H](O[C@@H]3O[C@@H]5CO[C@@H](C)O[C@H]5[C@H](O)[C@H]3OC(=O)c3ccccc3)[C@H]3COC(=O)[C@H]23)OCO4)cc(OC)c1O [Example 8, 2"-0-benzoyletoposide]	0.92 µg/mL (≈ 1.33 µM)	–	–	145%	–
COc1cc([C@@H]2c3cc4c(cc3[C@@H](O[C@@H]3O[C@@H]5CO[C@@H](C)O[C@H]5[C@H](OC(=O)c5ccccc5)[C@H]3O)[C@H]3COC(=O)[C@H]23)OCO4)cc(OC)c1O [Example 9, 3"-0-Benzoyletoposide]	0.17 µg/mL (≈ 0.245 µM)	0.83 µg/mL (≈ 1.2 µM)	–	–	Number of survivors/tested on day 50 ([1]; 60 mg/kg/day, i.p. single dose on day 1, CDF1 mice): 1/4; response vs control in vivo at 60 mg/kg ([1]; Mus musculus, P388, ip, 1200 h, 60 mg/kg/day, i.p. single dose on day 1, maximum % T/C at dose giving maximum effect, CDF1 mice, 50 days, read-out: % T/C MST): 420%
COc1cc([C@@H]2c3cc4c(cc3[C@@H](O[C@@H]3O[C@@H]5CO[C@@H](C)O[C@H]5[C@H](OC(=O)c5ccccc5)[C@H]3OC(=O)c3ccccc3)[C@H]3COC(=O)[C@H]23)OCO4)cc(OC)c1O [Example 10, 2",3"-0-di-benzoyletoposide]	4.4 µg/mL (≈ 5.52 µM)	–	–	125%	–
